# Laboratory results taken from US7888120B2, “Global regulator of morphogenesis and pathogenicity in dimorphic fungi and uses thereof” (Wisconsin Alumni Research Foundation, priority 2006, dated 2011).
# Test system: B. dermatitidis mutant 4-2-2
# Format: cell-based, Blastomyces dermatitidis
row,Structure (SMILES),Sensitivity of mutant versus parent strain T53-19
1,Nc1c(/N=N/c2ccc(-c3ccc(/N=N/c4cc(S(=O)(=O)O)c5ccccc5c4N)cc3)cc2)cc(S(=O)(=O)O)c2ccccc12 [Congo red],more sensitive than the parent strain
2,O=S(=O)([O-])c1cc(Nc2nc(Nc3ccccc3)nc(N(CCO)CCO)n2)ccc1/C=C/c1ccc(Nc2nc(Nc3ccccc3)nc(N(CCO)CCO)n2)cc1S(=O)(=O)[O-].[Na+].[Na+] [calcofluor],more sensitive than the parent strain
